According to patent publication US7659245B2, “Macrocylic inhibitors of hepatitis C virus” (Tibotec Pharmaceuticals Ltd, priority 2005, dated 2010):

Assays:
[1] = tested on: HCV replicons (Huh-7 luc/neo cells, NS3-NS5B regions of HCV type 1b); test: Replicon assay: inhibition of HCV RNA replication in Huh-Luc cells (luciferase read-out); type: cell-based; conditions: HCV type 1b replicon, luciferase activity after three days
Method: The in vitro antiviral activity against HCV of the compounds of formula (I) was tested in a cellular HCV replicon system based on Lohmann et al. (1999) Science 285:110-113, with the further modifications described by Krieger et al. (2001) Journal of Virology 75: 4614-4624 (incorporated herein by reference), which is further exemplified in the examples section. This model, while not a complete infection model for HCV, is widely accepted as the most robust and efficient model of autonomous HCV RNA replication currently available. […] It will be appreciated that it is important to distinguish between compounds that specifically interfere with HCV functions from those that exert cytotoxic or cytostatic effects in the HCV replicon model, and as a consequence cause a decrease in HCV RNA or linked reporter enzyme concentration. Assays are known in the field for the evaluation of cellular cytotoxicity based for example on the activity of mitochondrial enzymes using fluorogenic redox dyes such as resazurin. Furthermore, cellular counter screens exist for the evaluation of non-selective inhibition of linked reporter gene activity, such as firefly luciferase. Appropriate cell types can be equipped by stable transfection with a luciferase reporter gene whose expression is dependent on a constitutively active gene promoter, and such cells can be used as a counter-screen to eliminate non-selective inhibitors.
The compounds of formula (I) were examined for activity in the inhibition of HCV RNA replication in a cellular assay. […] The cellular assay was based on a bicistronic expression construct, as described by Lohmann et al. (1999) Science vol. 285 pp. 110-113 with modifications described by Krieger et al. (2001) Journal of Virology 75: 4614-4624, in a multi-target screening strategy. In essence, the method was as follows.
The assay utilized the stably transfected cell line Huh-7 luc/neo (hereafter referred to as Huh-Luc). This cell line harbors an RNA encoding a bicistronic expression construct comprising the wild type NS3-NS5B regions of HCV type 1b translated from an Internal Ribosome Entry Site (IRES) from encephalomyocarditis virus (EMCV), preceded by a reporter portion (FfL-luciferase), and a selectable marker portion (neo^R, neomycine phosphotransferase). The construct is bordered by 5′ and 3′ NTRs (non-translated regions) from HCV type 1b. Continued culture of the replicon cells in the presence of G418 (neo^R) is dependent on the replication of the HCV RNA. The stably transfected replicon cells that express HCV RNA, which replicates autonomously and to high levels, encoding inter alia luciferase, are used for screening the antiviral compounds.
The replicon cells were plated in 384 well plates in the presence of the test and control compounds which were added in various concentrations. Following an incubation of three days, HCV replication was measured by assaying luciferase activity (using standard luciferase assay substrates and reagents and a Perkin Elmer ViewLux™ ultraHTS microplate imager). Replicon cells in the control cultures have high luciferase expression in the absence of any inhibitor. The inhibitory activity of the compound on luciferase activity was monitored on the Huh-Luc cells, enabling a dose-response curve for each test compound. EC50 values were then calculated, which value represents the amount of the compound required to decrease by 50% the level of detected luciferase activity, or more specifically, the ability of the genetically linked HCV replicon RNA to replicate.

[2] = biological target: full-length hepatitis C NS3 protease enzyme (HCV NS3/4A protease complexes) (Hepatitis C virus genotype 1a, UniProt P27958); test: Inhibition assay (enzymatic assay) of HCV NS3/4A protease; type: biochemical; conditions: enzyme 1 nM, 25 μM NS4A cofactor, 0.5 μM depsipeptide substrate, 30° C., competitive model
Chain of full-length hepatitis C NS3 protease enzyme (HCV NS3/4A protease complexes) (P27958 1027-1657, one chain of several): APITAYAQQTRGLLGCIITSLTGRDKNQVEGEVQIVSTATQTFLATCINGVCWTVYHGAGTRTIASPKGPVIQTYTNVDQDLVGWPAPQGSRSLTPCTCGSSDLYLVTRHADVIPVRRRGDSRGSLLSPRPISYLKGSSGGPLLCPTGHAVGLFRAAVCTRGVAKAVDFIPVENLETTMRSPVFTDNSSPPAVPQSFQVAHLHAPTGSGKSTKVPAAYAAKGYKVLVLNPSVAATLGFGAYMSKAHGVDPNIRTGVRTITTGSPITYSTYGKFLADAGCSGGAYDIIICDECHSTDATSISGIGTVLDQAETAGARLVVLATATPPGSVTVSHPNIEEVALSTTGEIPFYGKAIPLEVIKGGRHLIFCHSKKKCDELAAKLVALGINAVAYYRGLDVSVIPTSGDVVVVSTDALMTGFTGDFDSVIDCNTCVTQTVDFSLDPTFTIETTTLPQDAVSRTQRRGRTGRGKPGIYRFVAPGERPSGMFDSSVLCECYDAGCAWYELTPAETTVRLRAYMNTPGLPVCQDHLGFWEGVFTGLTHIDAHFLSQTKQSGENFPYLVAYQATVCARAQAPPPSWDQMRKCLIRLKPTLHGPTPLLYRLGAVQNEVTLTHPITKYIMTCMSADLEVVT
Method: The aim of this in vitro assay is to measure the inhibition of HCV NS3/4A protease complexes by the compounds of the present invention. This assay provides an indication of how effective compounds of the present invention would be in inhibiting HCV NS3/4A proteolytic activity.
The inhibition of full-length hepatitis C NS3 protease enzyme was measured essentially as described in Poliakov, 2002 Prot Expression & Purification 25 363 371. Briefly, the hydrolysis of a depsipeptide substrate, Ac-DED(Edans)EEAbuψ[COO]ASK(Dabcyl)-NH2 (AnaSpec, San José, USA), was measured spectrofluorometrically in the presence of a peptide cofactor, KKGSVVIVGRIVLSGK (Åke Engström, Department of Medical Biochemistry and Microbiology, Uppsala University, Sweden). [Landro, 1997 #Biochem 36 9340-9348]. The enzyme (1 nM) was incubated in 50 mM HEPES, pH 7.5, 10 mM DTT, 40% glycerol, 0.1% n-octyl-D-glucoside, with 25 μM NS4A cofactor and inhibitor at 30° C. for 10 min, whereupon the reaction was initiated by addition of 0.5 μM substrate. Inhibitors were dissolved in DMSO, sonicated for 30 sec. and vortexed. The solutions were stored at −20° C. between measurements.
The final concentration of DMSO in the assay sample was adjusted to 3.3%. The rate of hydrolysis was corrected for inner filter effects according to published procedures. [Liu, 1999 Analytical Biochemistry 267 331-335]. Ki values were estimated by non-linear regression analysis (GraFit, Erithacus Software, Staines, MX, UK), using a model for competitive inhibition and a fixed value for Km (0.15 μM). A minimum of two replicates was performed for all measurements.

## COc1ccc2c(O[C@@H]3C[C@H]4C(=O)N[C@]5(C(=O)NS(=O)(=O)C6(C)CC6)C[C@H]5/C=C\CCCCCNC(=O)N4C3)nc(-c3ccccc3)nc2c1C [Compound 176, 1-Methyl-cyclopropanesulfonic acid [18-(7-methoxy-8-methyl-2-phenyl-quinazolin-4-yloxy)-2,15-dioxo-3,14,16-triaza-tricyclo[14.3.0.0*4,6*]nonadec-7-ene-4-carboyl]-amide]
[1]; Hepatitis C virus, Huh-7, 72 h
  EC50: 0.5 to 199 nM
[2]
  Ki: 0.1 to 4.9 nM

## CC(C)Nc1nc(O[C@@H]2C[C@H]3C(=O)N[C@]4(C(=O)NS(=O)(=O)C5CC5)C[C@H]4/C=C\CCCCN(C)C(=O)[C@@H]3C2)c2ccccc2n1 [Compound 71, Cyclopropanesulfonic acid [17-(2-isopropylamino-quinazolin-4-yloxy)-13-methyl-2,14-dioxo-3,13-diaza-tricyclo[13.3.0.0*4,6*]octadec-7-ene-4-carbonyl]-amide]
[1]; Hepatitis C virus, Huh-7, 72 h
  EC50: 200 to 990 nM
[2]
  Ki: 0.1 to 4.9 nM

## CN1CCCC/C=C\[C@@H]2C[C@@]2(C(=O)NS(=O)(=O)C2CC2)NC(=O)[C@@H]2C[C@@H](Oc3nc(N4CCCC4)nc4ccccc34)C[C@H]2C1=O [Compound 72, Cyclopropanesulfonic acid [13-methyl-2,14-dioxo-17-[2-pyrrolidin-1-yl)-quinazolin-4-yloxy]-3,13-diaza-tricyclo[13.3.0.0*4,6*]octadec-7-ene-4-carbonyl]-amide]
[1]; Hepatitis C virus, Huh-7, 72 h
  EC50: 200 to 990 nM
[2]
  Ki: 0.1 to 4.9 nM

## CN1CCCC/C=C\[C@@H]2C[C@@]2(C(=O)NS(=O)(=O)C2CC2)NC(=O)[C@@H]2C[C@@H](Oc3nc(-c4ccccc4)nc4ccccc34)C[C@H]2C1=O [Compound 31, Cyclopropanesulfonic acid [13-methyl-2,14-dioxo-17-(2-phenylquinazolin-4-yl-oxy)3,13-diaza-tricyclo[13.3.0.0*4,6*]octadec-7-ene-4-carbonyl]amide]
[1]; Hepatitis C virus, Huh-7, 72 h
  EC50: 0.5 to 199 nM
[2]
  Ki: 0.1 to 4.9 nM

## Cyclopropanesulfonic acid {13-methyl-2,14-dioxo-17-[2-(5H-pyrazol-1-yl)-quinazolin-4-yloxy]-3,13-diaza-tricyclo[13.3.0.0*4,6*]octadec-7-ene-4-carbonyl-amide [Compound 70]
[1]
  EC50: > 10000 nM
[2]
  Ki: > 1000 nM

## CCOc1nc(O[C@@H]2C[C@H]3C(=O)N[C@]4(C(=O)NS(=O)(=O)C5CC5)C[C@H]4/C=C\CCCCN(C)C(=O)[C@@H]3C2)c2ccc(OC)c(C)c2n1 [Compound 150, N-[17-[2-Ethoxy-7-methoxy-8-methylquinazolin-4-yloxy]-13-methyl-2,14-dioxo-3,13-diazatricyclo[13.3.0.0^4,6]octadec-7-ene-4-carbonyl](cyclopropyl)sulfonamide]
[1]; Hepatitis C virus, Huh-7, 72 h
  EC50: 0.5 to 199 nM
[2]
  Ki: 0.1 to 4.9 nM

## COc1ccc(-c2nc(O[C@@H]3C[C@H]4C(=O)N[C@]5(C(=O)NS(=O)(=O)C6CC6)C[C@H]5/C=C\CCCCN(C)C(=O)[C@@H]4C3)c3ccc(OC)c(C)c3n2)cc1 [Compound 138, Cyclopropanesulfonic acid {17-[7-methoxy-2-(4-methoxy-phenyl)-8-methyl-quinazolin-4-yloxy]-13-methyl-2,14-dioxo-3,13-diaza-tricyclo[13.3.0.0*4,6*]octadec-7-ene-4-carbonyl}-amide]
[1]; Hepatitis C virus, Huh-7, 72 h
  EC50: 0.5 to 199 nM
[2]
  Ki: 0.1 to 4.9 nM

## COc1ccc2c(O[C@@H]3C[C@H]4C(=O)N[C@]5(C(=O)NS(=O)(=O)C6CC6)C[C@H]5/C=C\CCCCN(C)C(=O)[C@@H]4C3)nc(-c3ccccc3)nc2c1C [Compound 89, Cyclopropanesulfonic acid [17-(7-methoxy-8-methyl-2-phenyl-quinazolin-4-yloxy)-13-methyl-2,14-dioxo-3,13-diaza-tricyclo[13.3.0.0*4,6*]octadec-7-ene-4-carbnyl]-amide]
[1]; Hepatitis C virus, Huh-7, 72 h
  EC50: 0.5 to 199 nM
[2]
  Ki: 0.1 to 4.9 nM

## CN1CCCC/C=C\[C@@H]2C[C@@]2(C(=O)NS(=O)(=O)C2CC2)NC(=O)[C@@H]2C[C@@H](Oc3nc(N4CCOCC4)nc4ccccc34)C[C@H]2C1=O [Compound 36, Cyclopropanesulfonic acid [13-methyl-17-(2-morpholin-4-yl-quinazolin-4-yloxy)-2,14-dioxo-3,13-diaza-tricyclo[13.3.0.0*4,6*]octadec-7-ene-4-carbonyl]-amide]
[1]; Hepatitis C virus, Huh-7, 72 h
  EC50: 200 to 990 nM
[2]
  Ki: 5 to 99.9 nM

## COc1ccc2c(O[C@@H]3C[C@H]4C(=O)N[C@]5(C(=O)NS(=O)(=O)C6CC6)C[C@H]5/C=C\CCCCN(C)C(=O)[C@@H]4C3)nc(-c3ccccc3)nc2c1 [Compound 21, Cyclopropanesulfonic acid [17-(7-methoxy-2-phenyl-quinazolin-4-yloxy)-13-methyl-2,14-dioxo-3,13-diaza-tricyclo[13.3.0.0*4,6*]octadec-7-ene-4-carbonyl]-amide]
[1]; Hepatitis C virus, Huh-7, 72 h
  EC50: 0.5 to 199 nM
[2]
  Ki: 0.1 to 4.9 nM

## COc1ccc2c(O[C@H]3CC4C(=O)N(C)CCCC/C=C\[C@@H]5C[C@@]5(C(=O)NS(=O)(=O)C5CC5)NC(=O)[C@@H]4C3)nc(-c3ccc(F)cc3)nc2c1C (stereo partly shown) [Compound 154]
[1]; Hepatitis C virus, Huh-7, 72 h
  EC50: 0.5 to 199 nM
[2]
  Ki: 0.1 to 4.9 nM

## COc1ccc2c(O[C@@H]3C[C@H]4C(=O)N[C@]5(C(=O)NS(=O)(=O)C6CC6)C[C@H]5/C=C\CCCCN(C)C(=O)N4C3)nc(-c3ccccc3)nc2c1C [Compound 94, Cyclopropanesulfonic acid [17-(7-methoxy-8-methyl-2-phenyl-quinazolin-4-yloxy)-13-methyl-2,14-dioxo-3,13,15-triaza-tricyclo[13.3.0.0*4,6*]octadec-7-ene-4-carbonyl]-amide]
[1]; Hepatitis C virus, Huh-7, 72 h
  EC50: 0.5 to 199 nM
[2]
  Ki: 0.1 to 4.9 nM

## COc1ccc2c(O[C@@H]3C[C@H]4C(=O)N[C@]5(C(=O)NS(=O)(=O)C6CC6)C[C@H]5/C=C\CCCCN(C)C(=O)[C@@H]4C3)nc(-c3cccc(F)c3)nc2c1C [Compound 160, Cyclopropanesulfonic acid {17-[2-(3-fluoro-phenyl)-7-methoxy-8-methyl-quinazolin-4-yloxy]-13-methyl-2,14-dioxo-3,13-diaza-tricyclo[13.3.0.0*4,6*]octadec-7-ene-4-carbonyl}-amide]
[1]; Hepatitis C virus, Huh-7, 72 h
  EC50: 0.5 to 199 nM
[2]
  Ki: 0.1 to 4.9 nM

## COc1ccc2c(O[C@@H]3C[C@H]4C(=O)N[C@]5(C(=O)NS(=O)(=O)C6CC6)C[C@H]5/C=C\CCCCN(C)C(=O)N4C3)nc(-c3ccncc3)nc2c1C [Compound 179, Cyclopropanesulfonic acid [17-(7-methoxy-8-methyl-2-pyridin-4-yl-quinazolin-4-yloxy)-13-methyl-2,14-dioxo-3,13,15-triaza-tricyclo[13.3.0.0*4,6*]octadec-7-ene-4-carbonyl]-amide]
[1]; Hepatitis C virus, Huh-7, 72 h
  EC50: 0.5 to 199 nM
[2]
  Ki: 0.1 to 4.9 nM
